# From patent US20250312462A1, “PAK1 DEGRADERS AND METHODS OF USE THEREOF” (INSTITUTE FOR CANCER RESEARCH D/B/A THE RESEARCH INSTITUTE …, priority 2022, published 2025)
# Experiments:
# Experiment in all cases: KINOMEscan
# [1] = molecular target: TYK2(JH2domain-pseudokinase) (Homo sapiens, UniProt P29597); conditions: read-out: Percent Control
# Description: (§1) The kinase engagement assay (KINOMEscan®) was performed by DiscoverX assessing binding abilities toward a set of kinases.
# MET(Y1235D) = MET(Y1235D) (Homo sapiens, UniProt P08581, Y1235D); conditions: read-out: Percent Control
# Description: as §1
# [2] = molecular target: ABL1(Q252H)-nonphosphorylated (Homo sapiens, UniProt P00519, Q252H); conditions: read-out: Percent Control
# Description: as §1
# WNK2 = WNK2 (Homo sapiens, UniProt Q9Y3S1); conditions: read-out: Percent Control
# Description: as §1
# CSNK1G3 = CSNK1G3 (Homo sapiens, UniProt Q9Y6M4); conditions: read-out: Percent Control
# Description: as §1
# TIE1 = TIE1 (Homo sapiens, UniProt P35590); conditions: read-out: Percent Control
# Description: as §1
# STK39 = STK39 (Homo sapiens, UniProt Q9UEW8); conditions: read-out: Percent Control
# Description: as §1
# CSNK1G1 = CSNK1G1 (Homo sapiens, UniProt Q9HCP0); conditions: read-out: Percent Control
# Description: as §1
# FLT3(ITD, D835V) = conditions: 10 μM
# Description: as §1
# ALK(L1196M) = ALK(L1196M) (Homo sapiens, UniProt Q9UM73, L1196M); conditions: read-out: Percent Control
# Description: as §1
# KIT = KIT (Homo sapiens, UniProt P10721); conditions: read-out: Percent Control
# Description: as §1
# FLT3(D835Y) = FLT3(D835Y) (Homo sapiens, UniProt P36888, D835Y); conditions: read-out: Percent Control
# Description: as §1
# MAK = MAK (Homo sapiens, UniProt P20794); conditions: read-out: Percent Control
# Description: as §1
# DYRK2 = DYRK2 (Homo sapiens, UniProt Q92630); conditions: read-out: Percent Control
# Description: as §1
# ADCK4 = ADCK4 (Homo sapiens, UniProt Q96D53); conditions: read-out: Percent Control
# Description: as §1
# CDC2L1 = CDC2L1 (Homo sapiens, UniProt P21127); conditions: read-out: Percent Control
# Description: as §1
# ULK2 = ULK2 (Homo sapiens, UniProt Q8IYT8); conditions: read-out: Percent Control
# Description: as §1
# MKK7 = MKK7 (Homo sapiens, UniProt O14733); conditions: read-out: Percent Control
# Description: as §1
# IRAK4 = IRAK4 (Homo sapiens, UniProt Q9NWZ3); conditions: read-out: Percent Control
# Description: as §1
# ACVR2A = ACVR2A (Homo sapiens, UniProt P27037); conditions: read-out: Percent Control
# Description: as §1
# [3] = molecular target: RSK4(Kin.Dom.2-C-terminal) (Homo sapiens, UniProt Q9UK32); conditions: read-out: Percent Control
# Description: as §1
# EPHA8 = EPHA8 (Homo sapiens, UniProt P29322); conditions: read-out: Percent Control
# Description: as §1
# [4] = molecular target: RPS6KA5(Kin.Dom.1-N-terminal) (Homo sapiens, UniProt O75582); conditions: read-out: Percent Control
# Description: as §1
# PIP5K2C = PIP5K2C (Homo sapiens, UniProt Q8TBX8); conditions: read-out: Percent Control
# Description: as §1
# MST2 = MST2 (Homo sapiens, UniProt Q13188); conditions: read-out: Percent Control
# Description: as §1
# EPHA2 = EPHA2 (Homo sapiens, UniProt P29317); conditions: read-out: Percent Control
# Description: as §1
# TIE2 = TIE2 (Homo sapiens, UniProt Q02763); conditions: read-out: Percent Control
# Description: as §1
# TESK1 = TESK1 (Homo sapiens, UniProt Q15569); conditions: read-out: Percent Control
# Description: as §1
# [5] = molecular target: TYK2(JH1domain-catalytic) (Homo sapiens, UniProt P29597); conditions: read-out: Percent Control
# Description: as §1
# CSNK1G2 = CSNK1G2 (Homo sapiens, UniProt P78368); conditions: read-out: Percent Control
# Description: as §1
# PAK6 = PAK6 (Homo sapiens, UniProt Q9NQU5); conditions: read-out: Percent Control
# Description: as §1
# ZAP70 = ZAP70 (Homo sapiens, UniProt P43403); conditions: read-out: Percent Control
# Description: as §1
# CAMK1G = CAMK1G (Homo sapiens, UniProt Q96NX5); conditions: read-out: Percent Control
# Description: as §1
# RIOK2 = RIOK2 (Homo sapiens, UniProt Q9BVS4); conditions: read-out: Percent Control
# Description: as §1
# PDGFRA = PDGFRA (Homo sapiens, UniProt P16234); conditions: read-out: Percent Control
# Description: as §1
# BRAF = BRAF (Homo sapiens, UniProt P15056); conditions: read-out: Percent Control
# Description: as §1
# [6] = molecular target: ABL1(T315I)-nonphosphorylated (Homo sapiens, UniProt P00519, T315I); conditions: read-out: Percent Control
# Description: as §1
# Sequence of ULK2 (Q8IYT8 whole entry): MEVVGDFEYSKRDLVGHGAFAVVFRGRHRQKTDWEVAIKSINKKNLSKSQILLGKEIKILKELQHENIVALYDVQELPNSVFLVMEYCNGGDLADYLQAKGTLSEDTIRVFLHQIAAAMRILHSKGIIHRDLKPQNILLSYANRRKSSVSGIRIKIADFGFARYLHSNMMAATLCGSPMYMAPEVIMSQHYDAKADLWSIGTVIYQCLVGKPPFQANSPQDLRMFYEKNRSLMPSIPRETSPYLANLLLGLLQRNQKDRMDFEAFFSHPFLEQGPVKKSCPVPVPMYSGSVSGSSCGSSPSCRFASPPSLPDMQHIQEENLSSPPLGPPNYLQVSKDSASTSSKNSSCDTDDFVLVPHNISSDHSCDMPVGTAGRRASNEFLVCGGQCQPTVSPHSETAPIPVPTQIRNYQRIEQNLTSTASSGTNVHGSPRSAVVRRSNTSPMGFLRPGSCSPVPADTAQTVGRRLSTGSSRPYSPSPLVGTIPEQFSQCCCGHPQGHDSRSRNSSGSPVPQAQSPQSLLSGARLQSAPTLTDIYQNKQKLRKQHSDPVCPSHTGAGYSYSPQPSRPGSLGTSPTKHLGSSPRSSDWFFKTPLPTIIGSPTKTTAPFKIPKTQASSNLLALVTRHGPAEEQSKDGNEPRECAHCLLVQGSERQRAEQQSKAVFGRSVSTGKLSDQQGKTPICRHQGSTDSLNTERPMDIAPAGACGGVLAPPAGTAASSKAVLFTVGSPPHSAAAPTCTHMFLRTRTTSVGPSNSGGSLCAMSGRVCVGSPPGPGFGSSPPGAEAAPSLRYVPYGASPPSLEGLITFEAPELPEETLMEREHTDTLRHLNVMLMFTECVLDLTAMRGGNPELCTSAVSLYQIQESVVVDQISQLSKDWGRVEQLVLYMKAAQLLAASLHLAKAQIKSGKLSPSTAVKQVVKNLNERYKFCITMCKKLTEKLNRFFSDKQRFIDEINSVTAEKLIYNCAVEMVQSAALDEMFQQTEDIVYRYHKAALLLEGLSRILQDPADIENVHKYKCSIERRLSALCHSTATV
# Sequence of TYK2(JH1domain-catalytic) (P29597 897-1176 limits assumed): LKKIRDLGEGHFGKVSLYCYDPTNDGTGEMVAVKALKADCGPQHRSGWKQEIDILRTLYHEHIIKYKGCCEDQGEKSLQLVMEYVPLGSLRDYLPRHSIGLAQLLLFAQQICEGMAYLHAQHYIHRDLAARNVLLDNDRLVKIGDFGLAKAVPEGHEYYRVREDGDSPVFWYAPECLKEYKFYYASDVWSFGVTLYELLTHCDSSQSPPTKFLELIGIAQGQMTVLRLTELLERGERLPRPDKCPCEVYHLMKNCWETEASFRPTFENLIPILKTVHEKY
# Sequence of CDC2L1 (P21127 whole entry): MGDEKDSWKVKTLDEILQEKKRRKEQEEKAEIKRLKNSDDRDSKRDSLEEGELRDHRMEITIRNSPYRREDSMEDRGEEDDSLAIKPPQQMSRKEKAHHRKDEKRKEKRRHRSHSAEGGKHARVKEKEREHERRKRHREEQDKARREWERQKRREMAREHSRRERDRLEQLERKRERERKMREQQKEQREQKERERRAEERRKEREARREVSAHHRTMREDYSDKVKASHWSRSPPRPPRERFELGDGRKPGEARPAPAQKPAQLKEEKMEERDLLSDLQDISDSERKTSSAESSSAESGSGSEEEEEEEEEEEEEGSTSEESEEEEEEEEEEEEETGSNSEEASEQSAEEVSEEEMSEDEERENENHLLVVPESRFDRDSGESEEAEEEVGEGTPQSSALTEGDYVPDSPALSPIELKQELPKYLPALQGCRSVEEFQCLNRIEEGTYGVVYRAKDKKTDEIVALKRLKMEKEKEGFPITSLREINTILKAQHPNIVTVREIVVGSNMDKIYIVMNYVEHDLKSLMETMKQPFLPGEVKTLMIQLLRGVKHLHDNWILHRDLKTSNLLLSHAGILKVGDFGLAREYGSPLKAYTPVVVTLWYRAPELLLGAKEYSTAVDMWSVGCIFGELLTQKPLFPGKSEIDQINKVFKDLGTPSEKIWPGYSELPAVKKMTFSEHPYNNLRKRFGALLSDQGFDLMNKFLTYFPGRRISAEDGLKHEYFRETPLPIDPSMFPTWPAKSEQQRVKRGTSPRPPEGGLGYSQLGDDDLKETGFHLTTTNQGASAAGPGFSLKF
# Sequence of WNK2 (Q9Y3S1 whole entry): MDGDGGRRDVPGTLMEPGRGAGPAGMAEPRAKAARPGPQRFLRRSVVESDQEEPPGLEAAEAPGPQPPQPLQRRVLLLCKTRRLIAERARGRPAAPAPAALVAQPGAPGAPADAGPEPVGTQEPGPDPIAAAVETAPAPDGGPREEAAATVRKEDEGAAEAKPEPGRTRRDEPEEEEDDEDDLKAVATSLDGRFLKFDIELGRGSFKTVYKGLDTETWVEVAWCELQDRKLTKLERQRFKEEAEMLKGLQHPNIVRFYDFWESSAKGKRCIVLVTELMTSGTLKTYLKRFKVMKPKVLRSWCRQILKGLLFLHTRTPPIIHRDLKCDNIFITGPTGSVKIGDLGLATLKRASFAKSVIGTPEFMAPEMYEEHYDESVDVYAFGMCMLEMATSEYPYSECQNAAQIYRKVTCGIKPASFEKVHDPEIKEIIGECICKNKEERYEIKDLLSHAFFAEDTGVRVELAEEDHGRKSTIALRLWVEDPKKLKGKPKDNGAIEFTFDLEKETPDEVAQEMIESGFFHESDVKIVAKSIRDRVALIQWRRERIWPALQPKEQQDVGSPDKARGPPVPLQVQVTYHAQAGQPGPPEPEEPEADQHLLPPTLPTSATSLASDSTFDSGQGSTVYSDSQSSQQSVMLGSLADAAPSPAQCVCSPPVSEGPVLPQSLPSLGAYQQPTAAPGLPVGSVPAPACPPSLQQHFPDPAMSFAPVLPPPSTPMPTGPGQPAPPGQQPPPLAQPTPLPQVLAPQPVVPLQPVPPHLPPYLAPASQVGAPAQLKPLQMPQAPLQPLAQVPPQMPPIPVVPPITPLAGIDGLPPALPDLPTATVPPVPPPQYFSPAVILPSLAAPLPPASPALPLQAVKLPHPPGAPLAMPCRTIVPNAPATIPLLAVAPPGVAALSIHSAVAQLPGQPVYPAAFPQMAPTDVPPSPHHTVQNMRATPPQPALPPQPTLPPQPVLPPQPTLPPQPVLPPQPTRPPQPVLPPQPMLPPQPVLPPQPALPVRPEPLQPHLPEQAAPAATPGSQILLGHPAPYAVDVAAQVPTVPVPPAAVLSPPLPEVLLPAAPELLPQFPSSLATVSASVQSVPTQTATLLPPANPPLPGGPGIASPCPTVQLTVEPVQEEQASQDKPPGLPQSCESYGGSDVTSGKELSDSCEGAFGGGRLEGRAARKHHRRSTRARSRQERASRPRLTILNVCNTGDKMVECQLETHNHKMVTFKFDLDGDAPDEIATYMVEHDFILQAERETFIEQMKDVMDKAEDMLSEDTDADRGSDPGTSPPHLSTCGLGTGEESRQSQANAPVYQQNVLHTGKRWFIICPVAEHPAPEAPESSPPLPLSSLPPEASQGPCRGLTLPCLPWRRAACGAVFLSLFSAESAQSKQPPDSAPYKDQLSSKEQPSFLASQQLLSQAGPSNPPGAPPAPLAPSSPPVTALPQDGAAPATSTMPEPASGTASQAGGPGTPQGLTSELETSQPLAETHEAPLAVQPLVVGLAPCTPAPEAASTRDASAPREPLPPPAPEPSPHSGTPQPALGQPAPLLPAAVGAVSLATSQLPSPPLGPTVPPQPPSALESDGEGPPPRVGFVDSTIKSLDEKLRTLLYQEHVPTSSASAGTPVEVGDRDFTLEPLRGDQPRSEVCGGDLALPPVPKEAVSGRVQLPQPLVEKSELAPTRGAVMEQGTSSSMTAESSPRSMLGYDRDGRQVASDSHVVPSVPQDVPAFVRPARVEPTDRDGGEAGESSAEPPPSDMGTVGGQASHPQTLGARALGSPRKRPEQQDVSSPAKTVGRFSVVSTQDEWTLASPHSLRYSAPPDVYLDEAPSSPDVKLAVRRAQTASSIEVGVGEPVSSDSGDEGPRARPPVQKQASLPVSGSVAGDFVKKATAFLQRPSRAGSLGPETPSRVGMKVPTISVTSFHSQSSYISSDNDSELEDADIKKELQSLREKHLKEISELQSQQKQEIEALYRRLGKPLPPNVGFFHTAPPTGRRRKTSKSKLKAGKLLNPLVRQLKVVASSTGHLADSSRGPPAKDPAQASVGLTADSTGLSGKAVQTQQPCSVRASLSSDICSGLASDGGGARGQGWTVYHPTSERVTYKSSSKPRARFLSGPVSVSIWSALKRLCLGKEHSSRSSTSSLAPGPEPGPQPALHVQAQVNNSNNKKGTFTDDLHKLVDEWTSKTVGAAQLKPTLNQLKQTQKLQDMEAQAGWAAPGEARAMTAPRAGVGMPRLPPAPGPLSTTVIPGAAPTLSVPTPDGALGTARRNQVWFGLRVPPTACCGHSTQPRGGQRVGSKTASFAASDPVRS
# Sequence of CSNK1G3 (Q9Y6M4 whole entry): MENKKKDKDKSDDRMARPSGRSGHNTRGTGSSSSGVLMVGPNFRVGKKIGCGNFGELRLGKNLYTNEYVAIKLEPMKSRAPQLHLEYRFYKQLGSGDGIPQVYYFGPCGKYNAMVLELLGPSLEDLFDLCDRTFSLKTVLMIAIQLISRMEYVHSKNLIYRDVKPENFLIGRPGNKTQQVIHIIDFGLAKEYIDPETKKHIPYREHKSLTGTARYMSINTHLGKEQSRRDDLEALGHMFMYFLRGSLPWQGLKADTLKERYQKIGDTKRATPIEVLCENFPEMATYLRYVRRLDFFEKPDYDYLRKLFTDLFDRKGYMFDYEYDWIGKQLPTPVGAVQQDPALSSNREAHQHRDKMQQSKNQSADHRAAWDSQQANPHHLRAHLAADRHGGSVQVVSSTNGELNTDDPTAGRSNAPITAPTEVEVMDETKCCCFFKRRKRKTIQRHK
smiles,measurement,setting,value
"O=C1CCC(N2C(=O)c3cccc(NCCCCCCCCNC(=O)N4CC[C@H](NC5=Nc6cc(F)ccc6N(CC(F)F)c6ccc(Cl)cc65)C4)c3C2=O)C(=O)N1 (stereo partly drawn) [BJG-05-039, (3S)-3-((2-Chloro-5-(2,2-difluoroethyl)-8-fluoro-5H-dibenzo[b,e][1,4]diazepin-11-yl)amino)-N-(8-((2-(2,6-dioxopiperidin-3-yl)-1,3-dioxoisoindolin-4-yl)amino)octyl)pyrrolidine-1-carboxamide]",remaining binding at 10 µM,[1],97%
same,remaining binding at 10 µM,MET(Y1235D),63%
same,remaining binding at 10 µM,[2],87%
same,remaining binding at 10 µM,WNK2,89%
same,remaining binding at 10 µM,CSNK1G3,63%
same,remaining binding at 10 µM,TIE1,62%
same,remaining binding at 10 µM,STK39,70%
same,remaining binding at 10 µM,CSNK1G1,52%
same,Percent Control,"FLT3(ITD, D835V)",95
same,remaining binding at 10 µM,ALK(L1196M),100%
same,remaining binding at 10 µM,KIT,82%
same,remaining binding at 10 µM,FLT3(D835Y),63%
same,remaining binding at 10 µM,MAK,98%
same,remaining binding at 10 µM,DYRK2,89%
same,remaining binding at 10 µM,ADCK4,63%
same,remaining binding at 10 µM,CDC2L1,53%
same,remaining binding at 10 µM,ULK2,82%
same,remaining binding at 10 µM,MKK7,100%
same,remaining binding at 10 µM,IRAK4,100%
same,remaining binding at 10 µM,ACVR2A,51%
same,remaining binding at 10 µM,[3],45%
same,remaining binding at 10 µM,EPHA8,84%
same,remaining binding at 10 µM,[4],94%
same,remaining binding at 10 µM,PIP5K2C,100%
same,remaining binding at 10 µM,MST2,80%
same,remaining binding at 10 µM,EPHA2,82%
same,remaining binding at 10 µM,TIE2,98%
same,remaining binding at 10 µM,TESK1,92%
same,remaining binding at 10 µM,[5],91%
same,remaining binding at 10 µM,CSNK1G2,78%
same,remaining binding at 10 µM,PAK6,99%
same,remaining binding at 10 µM,ZAP70,100%
same,remaining binding at 10 µM,CAMK1G,63%
same,remaining binding at 10 µM,RIOK2,99%
same,remaining binding at 10 µM,PDGFRA,100%
same,remaining binding at 10 µM,BRAF,98%
same,remaining binding at 10 µM,[6],86%
